Assay results reported in patent US20090281191A1, “USE OF ORGANIC COMPOUNDS” (priority 2006, published 2009).
pEC50: −log10 of the molar value.

Key:
ERRγ = target: T1, ERRγ (Homo sapiens, UniProt P62508); conditions: purportedly, Zuercher et al. 2005; cited from earlier work
T1 sequence (P62508 1-458): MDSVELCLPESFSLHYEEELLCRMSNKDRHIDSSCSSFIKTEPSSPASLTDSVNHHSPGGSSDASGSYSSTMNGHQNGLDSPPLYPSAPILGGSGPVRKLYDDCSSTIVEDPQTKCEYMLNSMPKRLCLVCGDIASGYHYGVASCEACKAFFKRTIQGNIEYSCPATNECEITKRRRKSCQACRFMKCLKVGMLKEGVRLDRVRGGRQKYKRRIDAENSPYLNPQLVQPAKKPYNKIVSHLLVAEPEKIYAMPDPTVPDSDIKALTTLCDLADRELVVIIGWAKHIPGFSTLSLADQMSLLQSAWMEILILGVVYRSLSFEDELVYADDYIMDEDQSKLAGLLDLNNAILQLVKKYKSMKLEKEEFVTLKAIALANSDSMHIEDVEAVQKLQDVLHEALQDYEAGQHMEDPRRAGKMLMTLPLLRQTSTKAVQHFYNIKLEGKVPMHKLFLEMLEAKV

primary mouse myotubes [1] = experiment: Gene expression by real time quantitative PCR in primary mouse myotubes; assay type: cell-based; conditions: 24 h
Method: (§1) Primary mouse myoblasts from FVB mice were isolated and maintained as described in Bare et al. For experimentation, mouse myoblasts were grown to 80% confluence in F-10/Ham's media containing 20% fetal bovine serum, 1% Penicillin/Streptomycin and 2.5 ng/mL bFGF (human recombinant). The cells were then plated to 700,000 cells per well in 6-well plates, and allowed to differentiate into myotubes for 36 to 48 hours in DMEM containing 5% equine serum and Penicillin/Streptomycin. […] Assays performed included analysis of gene expression by real time quantitative PCR (RT-PCR), cytochrome c ELISA, citrate synthase assay, fatty acid oxidation assay, and a respiration assay. […] Each dose was tested in trplicate, and a set of wells treated with an equivalent volume of DMSO used was included in every experimental readout for control purposes.
For the purpose of assessing gene expression by RT-PCR, RNA was isolated from cell lysates, and cDNA was subsequently synthesized from this RNA. For RNA isolation, cells were homogenized in TRIzol (Invitrogen, catalog number 15596-026, Carlsbad, Calif.), and total RNA was isolated following the manufacturer's instructions. RNA was quantified using the spectrophotometer.
Reverse transcription was performed using the BD Sprint™ PowerScriptT™ kit from BD Biosciences (catalog number 639562). Quantitative real time PCR for the following genes was performed using Assay-on-Demand primer probes from Applied Biosystems (See Post-text Table 8-1 for catalog numbers): B2M, ERRγ, ERRβ, ERRα, PGC-1α, PGC-1β, PPARα, PPARγ, PPARδ, COX-4, cytochrome c, UQCRB, CPT-1b, LCAD, MCAD, IDH3a, ATP-5b, UCP-2, and UCP-3.
Taqman real time quantitative PCR was performed and analyzed following the manufacturer's instructions (Applied Biosystems). Specifically, amplification was performed in triplicate, in a 10 μl reaction mixture. The reaction mixture included: 1× TaqMan® Universal PCR Master Mix (Applied Biosystems, catalog number 4304437), 1× of Assay-on-Demand primer probe, and 2 μl of cDNA sample. Gene expression was calculated by normalizing to total cDNA as measured by B2M endogenous control (Applied Biosystems, catalog number Mm00437762_m1). The samples were initially incubated for 2 min at 50° C. for optimum uracyl-N-glycosylase activity. The PCR program started with a 95° C. denaturing for 10 min, followed by 40 cycles of 95° C./15 sec and 60° C./1 min in a 384-well thermal cycler (Perkin-Elmer Applied Biosystems). Each amplification run contained “No Template” controls (buffer and primers only). Amplification data were collected by the 7700 Sequence Detector and analyzed using the Sequence Detection System software developed by Perkin-Elmer (Applied Biosystems). The fractional cycle number reflecting a positive PCR result is called the cycle threshold (Ct).
Average gene expression values were calculated for each group relative to B2M, using 2^−ΔΔCt (as described by Applied Biosystems, Foster City, Calif.) with the expression in the vehicle treated cells (0 μM) normalized to a value of 1. The data are expressed as mean±SEM (n=3 replicate wells). Statistical significance was measured using Student's t test.

ERs = conditions: Zuercher et al. 2005; cited from earlier work
primary mouse myotubes [2] = experiment: Respiration assay (oxygen consumption, Clark electrode) in primary mouse myotubes; assay type: cell-based; conditions: 30 μM, 24 hr
Method: as §1
Cells were washed once with phosphate-buffered saline (PBS) and treated for 5 min at 37° C. with 2 ml of trypsin (Mediatech, catalog number 25-052-CI). Without removing trypsin, 10 ml of DMEM plus 10% FBS was added into each well. The cells were transferred to a 15 ml tube and centrifuged for 5 min at 1000 rpm. The cells were washed once with the medium and pelleted before being resuspended in the assay buffer containing 25 mM glucose (Sigma, catalog number G-5400), 1 mM pyruvate (Invitrogen, catalog number 11360-070) and 2% bovine serum albumin (BSA) (MP Biomedicals, catalog number 103703) in D-PBS (Invitrogen, catalog number 14040-133). The cell suspension was diluted to 1×10^6 cells per ml in the assay buffer and kept at 37° C. until used. Oxygen consumption was measured with a Clark electrode according to the instructions provided by Hansatech (Norfolk, UK). One half of the cell suspension was used for each measurement. […] The rate of respiration was measured by calculating the slope of the flux of oxygen consumption using the software provided by the manufacturer.

primary mouse myotubes [3] = experiment: Cytochrome c ELISA in primary mouse myotubes; assay type: cell-based; conditions: 30 μM, 24 hours, vs vehicle
Method: as §1
The cytochrome c enzyme-linked immunosorbent assay (ELISA) was performed using the RatMouse Cytochrome c Immunoassay kit from R&D Systems (catalog number MCTC0, R&D Systems, Minneapolis, Minn.) following the manufacturer's instructions.

ERRα = target: T2, ERRα (Homo sapiens, UniProt P11474); conditions: Zuercher et al. 2005; cited from earlier work
T2 sequence (P11474 1-423): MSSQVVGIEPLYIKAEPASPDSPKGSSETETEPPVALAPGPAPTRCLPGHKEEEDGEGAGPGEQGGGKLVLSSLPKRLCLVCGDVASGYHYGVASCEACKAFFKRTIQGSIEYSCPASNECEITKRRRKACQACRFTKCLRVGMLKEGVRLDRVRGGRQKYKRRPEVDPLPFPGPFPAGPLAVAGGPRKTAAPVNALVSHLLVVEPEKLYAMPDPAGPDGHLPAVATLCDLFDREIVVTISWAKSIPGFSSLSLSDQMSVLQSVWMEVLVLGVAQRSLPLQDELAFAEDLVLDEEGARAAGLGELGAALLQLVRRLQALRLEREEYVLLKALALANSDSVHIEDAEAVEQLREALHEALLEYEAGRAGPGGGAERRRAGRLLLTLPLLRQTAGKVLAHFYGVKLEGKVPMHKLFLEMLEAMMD

(His)6-hERRγ LBD = target: T3, (His)6-hERRγ LBD (Homo sapiens, UniProt P62508); experiment: FRET assay of agonist-induced activation of ERRγ with coactivator peptide PGC-1α; assay type: biochemical; conditions: for maximal increase in FRET signal: highest concentration tested / saturating concentrations
T3 sequence (P62508 233-457 limits assumed): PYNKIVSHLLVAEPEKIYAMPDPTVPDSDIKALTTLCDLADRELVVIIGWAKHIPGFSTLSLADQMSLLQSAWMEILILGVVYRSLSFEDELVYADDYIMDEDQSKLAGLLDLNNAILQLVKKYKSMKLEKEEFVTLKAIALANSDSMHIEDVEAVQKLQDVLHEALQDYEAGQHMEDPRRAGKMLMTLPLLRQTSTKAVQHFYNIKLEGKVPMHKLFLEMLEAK
Method: The FRET assay is designed to detect agonist-induced activation of ERRγ in the presence of the coactivator peptide PGC-1α. […] Mix 1 contained antibody, hERRγ LBD in buffer in a volume of 19 μL and was added to 30 μL of Mix 2 which contained Cy5-peptide in buffer (1. 6xHis-ERRγ-LBD, 3.6 mg/ml, MW 27 KDa; 2. Cy5-PGC-1 peptide from AnaSpec; 3. Other buffer components from Sigma; 4. EU-antiHis6-Ab from Perkin Elmer; and 5. Test compounds.). The assays were carried out in black 384-well plates and incubated at room temperature for 3 hrs before FRET signals were measured using a Wallac Victor 2 (Perkin Elmer) plate reader. The ratio of emission signals (665 nm/615 nm) was used to determine the FRET assay response. In some cases, the FRET signal to background ratio was used and this is simply defined as the FRET ratio in the presence of protein […] FRET ratio in the absence of protein. The test compounds were dissolved in DMSO at 10 mM and used as indicated.
The ability of agonist compounds to induce an increased FRET response between the Europium-labeled anti-(His)6 antibody/(His)6-hERRγ LBD complex and Cy5-[…] […] The compounds were solubilized in 10 mM DMSO and the concentration range of the titration was from 100 μM down to 2 nM. The final DMSO concentration was 2%. A DMSO control (no compound) at 2% was also prepared. All samples were made in duplicate.

ERRβ = target: T4, ERRβ (Homo sapiens, UniProt O95718); conditions: purportedly, Zuercher et al. 2005; cited from earlier work
T4 sequence (O95718 1-433): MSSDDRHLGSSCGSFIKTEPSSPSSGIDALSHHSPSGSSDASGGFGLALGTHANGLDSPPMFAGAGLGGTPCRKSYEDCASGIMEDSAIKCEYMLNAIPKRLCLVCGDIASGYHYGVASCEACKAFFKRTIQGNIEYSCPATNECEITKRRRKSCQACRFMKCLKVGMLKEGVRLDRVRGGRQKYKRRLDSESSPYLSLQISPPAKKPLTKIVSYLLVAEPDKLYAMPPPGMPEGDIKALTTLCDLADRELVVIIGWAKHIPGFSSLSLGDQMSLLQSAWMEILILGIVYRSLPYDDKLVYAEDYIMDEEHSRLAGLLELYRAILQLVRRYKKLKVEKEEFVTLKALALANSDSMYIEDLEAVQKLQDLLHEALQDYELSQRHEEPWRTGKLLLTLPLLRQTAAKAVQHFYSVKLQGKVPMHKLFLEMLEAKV

primary mouse myotubes [4] = experiment: Citrate synthase assay in primary mouse myotubes; assay type: cell-based; conditions: 24 hours
Method: as §1
The citrate synthase assay was performed following the procedure described in above in this application.

[5] = 30 μM, relative to B2M, vehicle = 1

For CC(C)c1ccc(/C=N/NC(=O)c2ccc(O)cc2)cc1 [AJQ710, 4-hydroxy-N′-(4-isopropylphenylmethylidene)-benzohydrazide], the “activation of ERRγ” value (ERRγ) is listed as “activates”, the UCP-2 highest expression (primary mouse myotubes [1]; 10 μM, relative to B2M, vehicle = 1) is listed as 1.5 fold and the ATP-5b expression increase (primary mouse myotubes [1]; [5]) is listed as 1.6 fold. The COX-4 expression increase (primary mouse myotubes [1]; [5]) was 2 fold, the CPT-1b expression increase (primary mouse myotubes [1]; [5]) was “over 3 fold” and the ERRα expression increase (primary mouse myotubes [1]; [5]) was 3.7 fold. For the same compound, the ERRβ expression increase (primary mouse myotubes [1]; [5]) was 1.5 fold, the ERRγ expression (primary mouse myotubes [1]; [5]) was 1.4 fold and the IDH3α expression increase (primary mouse myotubes [1]; [5]) was “over 2 fold”. It also gave an LCAD expression increase (primary mouse myotubes [1]; [5]) of 2.8 fold, an MCAD expression increase (primary mouse myotubes [1]; [5]) of 1.6 fold and a PGC-1α expression (primary mouse myotubes [1]; [5]) of 1.9 fold. The PPARγ maximal expression (primary mouse myotubes [1]; [5]) was 2.2 fold, the UCP-3 expression increase (primary mouse myotubes [1]; [5]) was “over 3 fold” and the UQCRB expression increase (primary mouse myotubes [1]; [5]) was 2 fold. The “cytochrome c expression increase” value (primary mouse myotubes [1]; [5]) was 3.7 fold, the PPARα expression (primary mouse myotubes [1]; 1-30 μM) was “no change in expression” and the PPARδ expression (primary mouse myotubes [1]; 1-30 μM) was “no change in expression”. The PGC-1β expression (primary mouse myotubes [1]; relative to B2M, vehicle = 1) was 1.8 fold, the “activation of the ERs” value (ERs) was “does not activate” and the “increase in basal respiration” value (primary mouse myotubes [2]; vs vehicle treated controls) was 37%. The “increase in respiration rate in the presence of FCCP” value (primary mouse myotubes [2]; vs vehicle-treated control cells) was 32%, the “increase in oligomycin-insensitive respiration (proton leak)” value (primary mouse myotubes [2]; not statistically significant) was 36% and the “increase of cytochrome c protein” value (primary mouse myotubes [3]) was 88%. For the same compound, the “activation of ERRα” value (ERRα) was “does not activate”, the “maximal increase in FRET signal” value ((His)6-hERRγ LBD) was at most 60% and the “activation of ERRβ (printed ERRP)” value (ERRβ) was “activates”. For the same compound, the “increase in citrate synthase activity” value (primary mouse myotubes [4]; 3 μM) was 9%, the “increase in citrate synthase activity” value (primary mouse myotubes [4]; 10 μM) was 8% and the “increase in citrate synthase activity” value (primary mouse myotubes [4]; 30 μM) was 28%.
With CCN(CC)c1ccc(/C=N/NC(=O)c2ccc(O)cc2)cc1 [LCN446, N′-(4-(diethylamino)phenylmethylidene)-4-hydroxybenzohydrazide] the “maximal increase in FRET signal” value ((His)6-hERRγ LBD) was 70% and the pEC50 ((His)6-hERRγ LBD; titration 100 μM down to 2 nM, 2% DMSO, duplicate, read-out: EC50 of FRET response) was 6.27.
